In patent publication US20090008238A1, “TRANSPORTABLE GAS STERILIZATION UNIT, DISPOSABLE GAS GENERATOR, LIGHT ACTIVATED ANTI-INFECTIVE COATING AND METHOD OF DISINFECTION AND STERILIZATION USING CHLORINE DIOXIDE” (THE ARIZONA BD OF REG ON BEHALF OF THE UNIV OF AZ, priority 2004, published 2009):
Several values for one entry are separate records, joined by “and”; a condition that tells them apart may be missing. Equal entries are not always repeated.

How the values were obtained:
S. aureus = conditions: 2.5 minute exposure; cited from earlier work
B. subtilis (spore) = conditions: 2.5 minute exposure; cited from earlier work
A. niger = conditions: 2.5 minute exposure; cited from earlier work
E. coli = conditions: 2.5 minute exposure; cited from earlier work
MRSA = conditions: 2.5 minute exposure; cited from earlier work
[1] = tested on: Bacillus subtilis var. niger spores; experiment: sporicidal effects of gas phase ClO2 on inoculated washers; format: cell-based; set-up: key to Sterility (Day 14): Yes indicates no turbidity was observed, sample is sterile.; No indicates turbidity observed, sample is not sterile; conditions: 4 hours; for Log Reduction: versus average of 2D and 2E
Procedure: Sterile washers were inoculated with 1.4×10^7 Bacillus subtilis var. niger spores and allowed to dry overnight. Solutions were prepared in sterile jars to obtain different chlorine dioxide levels. Five washers were suspended in each jar and exposed to one chlorine dioxide concentration for 4 hours in the dark. Two washers from each chlorine dioxide level were enumerated for log reduction and three washers from each chlorine dioxide concentration were analyzed for sterility. Log reduction samples were analyzed by placing one washer into 10 ml sterile Difco DE Neutralizing Broth, shaking for approximately 30 seconds and spread plating, in duplicate, onto Difco Trypticase Soy agar plates incubated at 35° C. for 48 hours. Sterility was determined by placing one washer in 50 ml sterile Difco Trypticase Soy Broth incubated at 35° C. for 14 days and visually checked daily for turbidity. Appropriate positive and negative controls were run with test samples.

red blood cell = conditions: cited from earlier work
Simian, Rotavirus SA11 = conditions: pH 10; cited from earlier work
[2] = relative to hypochlorite; cited from earlier work
[3] = drank solution, up to a concentration of 24 ppm; cited from earlier work
[4] = concentrations up to 100 ppm, in drinking, as well as via the skin route; cited from earlier work
[5] = low concentrations (20 mg/L) of gas; cited from earlier work

Molecule: N=C(NCCCCCCNC(=N)NC(=N)Nc1ccc(Cl)cc1)NC(=N)Nc1ccc(Cl)cc1.O=C(O)[C@H](O)[C@@H](O)[C@H](O)[C@H](O)CO.O=C(O)[C@H](O)[C@@H](O)[C@H](O)[C@H](O)CO [CHG, Chlorhexidine digluconate]
- minimum bactericidal concentration, S. aureus (S. aureus): 10 ppm
- minimum bactericidal concentration, B. subtilis (spore) (B. subtilis (spore)): 1,000 ppm
- minimum bactericidal concentration, A. niger (A. niger): >10,000 ppm
- minimum bactericidal concentration, E. coli (E. coli): 100 ppm
- minimum bactericidal concentration, MRSA (MRSA): 1,000 ppm

Molecule: [O][Cl+][O-] [Chlorine Dioxide]
- CFU/ml Recovered Bacillus subtilis var. niger ([1]; 50 ppm gas phase): 50,000 CFU/ml and 73,000 CFU/ml
- Sterility (Day 14) ([1]; 50 ppm gas phase): No
- Log Reduction ([1]; 50 ppm gas phase): 2.30 and 2.13
- Sterility (Day 14) ([1]; 100 ppm gas phase): Yes
- Log Reduction ([1]; 100 ppm gas phase): > 6
- CFU/ml Recovered Bacillus subtilis var. niger ([1]; 200 ppm gas phase): <1 CFU/ml
- Sterility (Day 14) ([1]; 200 ppm gas phase): Yes
- Log Reduction ([1]; 200 ppm gas phase): >6.99
- CFU/ml Recovered Bacillus subtilis var. niger ([1]; 300 ppm gas phase): <1 CFU/ml
- Sterility (Day 14) ([1]; 300 ppm gas phase): Yes
- Log Reduction ([1]; 300 ppm gas phase): >6.99
- CFU/ml Recovered Bacillus subtilis var. niger ([1]; 400 ppm gas phase): <1 CFU/ml
- Sterility (Day 14) ([1]; 400 ppm gas phase): Yes
- Log Reduction ([1]; 400 ppm gas phase): >6.99
- hematological changes (red blood cell; rats fed up to 1000 mg/l chronically for 6 months): no significant hematological changes
- red blood cell counts, hematocrit and hemoglobin (red blood cell; rats, after 9 months, all treatment groups): decreased
- minimum bactericidal concentration, S. aureus (S. aureus): 1 ppm
- time to good antiviral activity (Simian, Rotavirus SA11): less than 15 seconds
- minimum bactericidal concentration, B. subtilis (spore) (B. subtilis (spore)): 100 ppm
- minimum bactericidal concentration, A. niger (A. niger): 10 ppm
- half-life for the elimination from the plasma [2]: less than half that of hypochlorite
- adverse effects in human volunteers [3]: no adverse effects
- minimum bactericidal concentration, E. coli (E. coli): 1 ppm
- fetal malformation or birth defects [4]: no evidence of fetal malformation or birth defects
- minimum bactericidal concentration, MRSA (MRSA): 1 ppm
- sterilant effectiveness [5]: effective sterilant

Molecule: CCO [EtOH, Absolute Ethyl Alcohol]
- minimum bactericidal concentration, S. aureus (S. aureus): 500,000 ppm
- minimum bactericidal concentration, B. subtilis (spore) (B. subtilis (spore)): 500,000 ppm
- minimum bactericidal concentration, A. niger (A. niger): 500,000 ppm
- minimum bactericidal concentration, E. coli (E. coli): 500,000 ppm
- minimum bactericidal concentration, MRSA (MRSA): 500,000 ppm

Molecule: O=CCCCC=O [GA, Glutaraldehyde]
- minimum bactericidal concentration, S. aureus (S. aureus): 100,000 ppm
- minimum bactericidal concentration, B. subtilis (spore) (B. subtilis (spore)): 100,000 ppm
- minimum bactericidal concentration, A. niger (A. niger): 100,000 ppm
- minimum bactericidal concentration, E. coli (E. coli): 100,000 ppm
- minimum bactericidal concentration, MRSA (MRSA): 100,000 ppm

Molecule: Oc1ccccc1 [PN, Phenol]
- minimum bactericidal concentration, S. aureus (S. aureus): >10,000 ppm
- minimum bactericidal concentration, B. subtilis (spore) (B. subtilis (spore)): >10,000 ppm
- minimum bactericidal concentration, A. niger (A. niger): >10,000 ppm
- minimum bactericidal concentration, E. coli (E. coli): 10,000 ppm
- minimum bactericidal concentration, MRSA (MRSA): >10,000 ppm

Molecule: OCl [SH, Sodium hypochlorite]
- minimum bactericidal concentration, S. aureus (S. aureus): 10 ppm
- minimum bactericidal concentration, B. subtilis (spore) (B. subtilis (spore)): >1,000 ppm
- minimum bactericidal concentration, A. niger (A. niger): 1,000 ppm
- minimum bactericidal concentration, E. coli (E. coli): 10 ppm
- minimum bactericidal concentration, MRSA (MRSA): 10 ppm

Molecule: [O-][Cl+]O [chlorite ions]
- half-life for the elimination from the plasma [2]: less than half that of hypochlorite
- adverse effects in human volunteers [3]: no adverse effects

Molecule: Benzalkonium chloride [BAC]
- minimum bactericidal concentration, S. aureus (S. aureus): 10 ppm
- minimum bactericidal concentration, B. subtilis (spore) (B. subtilis (spore)): 1,000 ppm
- minimum bactericidal concentration, A. niger (A. niger): 10,000 ppm
- minimum bactericidal concentration, E. coli (E. coli): 100 ppm
- minimum bactericidal concentration, MRSA (MRSA): 100 ppm

Molecule: Providone iodine [PVP-I]
- minimum bactericidal concentration, S. aureus (S. aureus): 100 ppm
- minimum bactericidal concentration, B. subtilis (spore) (B. subtilis (spore)): >1,000 ppm
- minimum bactericidal concentration, A. niger (A. niger): 1,000 ppm
- minimum bactericidal concentration, E. coli (E. coli): 10 ppm
- minimum bactericidal concentration, MRSA (MRSA): 100 ppm
